pKi: −log10 of the molar value. Starred links: 1 amine or outer side, 2 acyl side, 3 side chain; linkers in the order of their positions; H or OH if unused. Positions of bridges follow the written chain, without caps; N, C: chain ends. Non-standard residues stand in square brackets, D forms with d. Residues, ends and D or L forms follow the SMILES beside them. 1Nal = N[C@@H](Cc1cccc2ccccc12)C(=O)O; TBMB = c1c(C[*:1])cc(C[*:3])cc1C[*:2]; Tle = CC(C)(C)[C@H](N)C(=O)O; βAla = NCCC(=O)O; Sar = CNCC(=O)O
Tests used:
[1] = test system: MT1-MMP; assay: Species cross-reactivity with MT1-MMP; assay type: binding; details: murine, dog, cynomolgus and human MT1-MMP
[2] = target: T1, MT1-MMP hemopexin domain (Homo sapiens, UniProt P50281); assay: Fluorescence polarisation competition binding to MT1-MMP hemopexin domain; details: read-out: Binding Affinity Ki(h)
T1 construct: residues Cys319-Gly511 from the human gene; His6 (N); made in house; host or cells: HEK293 (transient, pEXPR-IBA42 vector)
Text: The MT1-MMP hemopexin-like repeats (also known as the MT1-MMP hemopexin domain), residues Cys319-Gly511 from the human gene, were transiently expressed in HEK293 cells as secreted N-terminally His6-tagged soluble protein, using the pEXPR-IBA42 (IBA) expression vector. Following expression, the protein was purified by Nickel-NTA affinity chromatography followed by gel filtration, and purity was checked by SDS-PAGE. Batch to batch variability was also monitored by fluorescence thermal shift experiments in the presence/absence of a hemopexin domain binding bicycle.
Binding affinity was measured using competition assays using Fluorescence Polarisation (anisotropy). […]
Here, a pre-formed complex of PEX with the fluorescent PEX-binding tracer is titrated with free, non-fluoresceinated bicyclic peptide. […] Dissociation of the complex can be measured quantitatively, and the Kd of the competitor (titrant) to the target protein determined. The advantage of the competition method is that the affinities of non-fluoresceinated bicyclic peptides can be determined accurately and rapidly.
Subsequently, the non-fluorescent competitor bicyclic peptide (usually just the bicycle core sequence) is titrated, such that it displaces the fluorescent tracer from the target protein. The displacement of the tracer is measured and associated with a drop in fluorescence polarisation. […]

[3] = Plasma stability in mouse serum; assay type: in vitro ADME; details: 4 μM concentration
Text: (§1) The stability appears to be slightly greater than that of the corresponding conjugates in which the peptide is linked to the scaffold by three thioether linkages.

[4] = Plasma stability in human serum; assay type: in vitro ADME; details: 4 μm concentration
Text: as §1

[5] = Tolerability in HT1080 tumor-bearing mice; details: mouse, in vivo; biw dosing, up to 14 days, BALB/c nude mice; read-out: tolerated dose
Method: BALB/c nude mice were inoculated subcutaneously at the right flank with HT1080 tumor cells […] in 0.2 ml of PBS for tumor development. 39 animals were randomized when the average tumor volume reached […].
The BDC compounds were formulated at 0.03 mg/ml in a vehicle buffer containing 25 mM histidine and 10% Sucrose. The formulations were administered twice weekly (biw) at 0.3, 1, 3 and 10 mg/kg. Tumor volume and body weight were measured up to 14 days from the first dosing.

## 17-69-07-N268: stabilised derivative of 17-69-07; Dap homologues have SEQ ID 17 (ACANEAACEDFYDGC; non-natural residues D-Ala, 1Nal, tBuGly, Dap; bicycle; VARIANT 2 /replace="Dap" or "N-AlkDap" or "N-HAlkDap"; MOD_RES 3 D-amino acid; MOD_RES 6 Fmoc-L-1-Naphthylalanine; MOD_RES 7 D-amino acid; VARIANT 8 /replace="Dap" or "N-AlkDap" or "N-HAlkDap"; MOD_RES 14 Fmoc-alpha-tert-butylglycine; VARIANT 15 /replace="Dap" or "N-AlkDap" or "N-HAlkDap"; MISC_FEATURE - /note="Variant residues given in the sequence have nopreference with respect to those in the a)
[1]
  cross-reactivity with MT1-MMP of other species: fully cross reactive

## C[C@H](NC(=O)CN(C)C(=O)CN(C)C(=O)CN(C)C(=O)CN(C)C(=O)CN(C)C(=O)CN(C)C(=O)CN(C)C(=O)CN(C)C(=O)CN(C)C(=O)CN(C)C(=O)CCN)C(=O)N[C@H]1CSCc2cc3cc(c2)CSC[C@H](NC(=O)[C@@H](C)NC(=O)[C@H](Cc2cccc4ccccc24)NC(=O)[C@H](CCC(=O)O)NC(=O)[C@H](CC(N)=O)NC(=O)[C@@H](C)NC1=O)C(=O)N[C@@H](CCC(=O)O)C(=O)N[C@@H](CC(=O)O)C(=O)N[C@@H](Cc1ccccc1)C(=O)N[C@@H](Cc1ccc(O)cc1)C(=O)N[C@@H](CC(=O)O)C(=O)N[C@@H](C(C)(C)C)C(=O)N[C@H](C(N)=O)CSC3 [17-69-07-N241, H-(β-Ala)-Sar10-Ala-Cys-(D-Ala)-Asn-Glu-(1Nal)-(D-Ala)-Cys-Glu-Asp-Phe-Tyr-Asp-(tBuGly)-Cys-NH2] (H-[βAla][Sar][Sar][Sar][Sar][Sar][Sar][Sar][Sar][Sar][Sar]AC[dA]NE[1Nal][dA]CEDFYD[Tle]C-NH2; linker 13-19-26 via TBMB)
[1]
  cross-reactivity with MT1-MMP of other species: fully cross reactive

## CC(=O)N[C@@H](C)C(=O)N[C@H]1CN(C)Cc2cc3cc(c2)CN(C)C[C@@H](C(N)=O)NC(=O)[C@H](C(C)(C)C)NC(=O)[C@H](CC(=O)O)NC(=O)[C@H](Cc2ccc(O)cc2)NC(=O)[C@H](Cc2ccccc2)NC(=O)[C@H](CC(=O)O)NC(=O)[C@H](CCC(=O)O)NC(=O)[C@H](CSC3)NC(=O)[C@@H](C)NC(=O)[C@H](Cc2cccc3ccccc23)NC(=O)[C@H](CCC(=O)O)NC(=O)[C@H](CC(N)=O)NC(=O)[C@@H](C)NC1=O [17-69-07-N479, Ac-A(Dap(Me))(D-Ala)NE(1Nal)(D-Ala)CEDFYD(tBuGly)(Dap(Me))]
[2]
  pKi: 7.81

## CC[C@H](C)[C@@H]([C@@H](CC(=O)N1CCC[C@H]1[C@H](OC)[C@@H](C)C(=O)N[C@H](C)[C@@H](O)c1ccccc1)OC)N(C)C(=O)[C@@H](NC(=O)[C@H](C(C)C)N(C)C(=O)OCc1ccc(NC(=O)[C@H](CCCNC(N)=O)NC(=O)[C@@H](NC(=O)Cn2cc(CCC(=O)NCCC(=O)N(C)CC(=O)N(C)CC(=O)N(C)CC(=O)N(C)CC(=O)N(C)CC(=O)N(C)CC(=O)N(C)CC(=O)N(C)CC(=O)N(C)CC(=O)N(C)CC(=O)N[C@@H](C)C(=O)N[C@H]3CNCc4cc5cc(c4)CSC[C@H](NC(=O)[C@@H](C)NC(=O)[C@H](Cc4cccc6ccccc46)NC(=O)[C@H](CCC(=O)O)NC(=O)[C@H](CC(N)=O)NC(=O)[C@@H](C)NC3=O)C(=O)N[C@@H](CCC(=O)O)C(=O)N[C@@H](CC(=O)O)C(=O)N[C@@H](Cc3ccccc3)C(=O)N[C@@H](Cc3ccc(O)cc3)C(=O)N[C@@H](CC(=O)O)C(=O)N[C@@H](C(C)(C)C)C(=O)N[C@H](C(N)=O)CNC5)nn2)C(C)C)cc1)C(C)C [BT17BDC-53]
[3]
  T1/2 in mouse serum: greater than 50 hours
[4]
  T1/2 in human serum: greater than 50 hours

## CC[C@H](C)[C@@H]([C@@H](CC(=O)N1CCC[C@H]1[C@H](OC)[C@@H](C)C(=O)N[C@H](C)[C@@H](O)c1ccccc1)OC)N(C)C(=O)[C@@H](NC(=O)[C@H](C(C)C)N(C)C(=O)OCc1ccc(NC(=O)[C@H](CCCNC(N)=O)NC(=O)[C@@H](NC(=O)Cn2cc(CCC(=O)N[C@@H](C)C(=O)N[C@H]3CN(C)Cc4cc5cc(c4)CN(C)C[C@@H](C(N)=O)NC(=O)[C@H](C(C)(C)C)NC(=O)[C@H](CC(=O)O)NC(=O)[C@H](Cc4ccc(O)cc4)NC(=O)[C@H](Cc4ccccc4)NC(=O)[C@H](CC(=O)O)NC(=O)[C@H](CCC(=O)O)NC(=O)[C@H](CSC5)NC(=O)[C@@H](C)NC(=O)[C@H](Cc4cccc5ccccc45)NC(=O)[C@H](CCC(=O)O)NC(=O)[C@H](CC(N)=O)NC(=O)[C@@H](C)NC3=O)nn2)C(C)C)cc1)C(C)C [BT17BDC-62]
[5]
  MTD: ~5 mg/kg

— patent US20230340020A1, “PEPTIDE LIGANDS FOR BINDING TO MT1-MMP” (priority 2016, published 2023)
